The values that follow come from patent publication US20190247353A1, “ACNE STRAIN-SELECTIVE ANTIBACTERIAL AGENT” (MOMOTANI JUNTENKAN CO., LTD., priority 2016, published 2019).

What all share (type): cell-based, Propionibacterium acnes
Assay [1] has as its system HL053PA1 strain (RT4). As to the kind of experiment: MIC by broth microdilution method, HL053PA1 strain. The note with it: for MIC: Cutibacterium acnes, read-out: MIC against acne bacterium strain HL053PA1 strain (RT4). The procedure:
(§1) An MIC is measured herein according to the broth microdilution method which is the standard method of Japanese Society of Chemotherapy.
(§2) The antibacterial activity of a test substance was determined based on the minimum inhibitory concentration (MIC). An MIC was measured according to the broth microdilution method which is the standard method of Japanese Society of Chemotherapy.
(§3) One-loopful of each acne bacterium strain listed in Table 1 was scraped off and inoculated into 5 mL of a GAM broth slant agar medium (pH 7.0, Nissui Pharmaceutical Co., Ltd.).
(§4) The inoculated acne bacterium strain was precultured at 37° C. in a nitrogen atmosphere (anaerobic condition) for 48 hours. The precultured microbial cells were diluted in a modified GAM broth liquid medium (pH 6.0) to a concentration of 5.0×10^4 cfu/mL (viable cell count per OD660=1 is 2.0×10^9 cfu/mL), to prepare strain suspensions.
(§5) Each fatty acid (Tokyo Chemical Industry Co., Ltd.) listed in Table 2 was dissolved in dimethylsulfoxide (DMSO) as a solvent such that the concentration became 10,000 μg/mL, and used as a test substance.
(§6) Each of strain suspensions (5.0×10^4 cfu/mL) was aliquoted in a 96-well round bottom microplate, each of the test substance (fatty acid concentration 10,000 μg/mL) was added at a 1/10 volume to the aliquot and mixed to prepare measurement samples (fatty acid concentration: 1,000 μg/mL). Measurement samples in 2-fold dilution series were prepared using the strain suspension (fatty acid concentration from 0.48 to 1,000 μg/mL).
(§7) […] The presence or absence of a precipitation of test microbial cells after the incubation was examined and the minimum concentration at which the precipitation of microbial cells […] was regarded as the MIC (μg/mL) of the test substance against the acne bacterium strain.
(In general: Dilution methods test growth across graded concentrations, often in twofold steps.)

The test system of assay [2] is HL043PA1 strain (RT5). As to the kind of experiment: MIC by broth microdilution method, HL043PA1 strain. The note with it: for MIC: Cutibacterium acnes, read-out: MIC against acne bacterium strain HL043PA1 strain (RT5). The procedure: as §1, §2, §3
The inoculated acne bacterium strain was precultured at 37° C. in a nitrogen atmosphere (anaerobic condition) for 48 hours. […]
as §5, §6
The measurement samples were incubated under an anaerobic condition at 37° C. for 2 days. The presence or absence of a precipitation of test microbial cells after the incubation was examined and the minimum concentration at which the precipitation of microbial cells […] was regarded as the MIC (μg/mL) of the test substance against the acne bacterium strain.

The test system of assay [3] is HL110PA3 strain (RT6). Kind of assay: MIC by broth microdilution method, HL110PA3 strain. The note with it: Cutibacterium acnes; monoacylglycerols, Example 3, method as Example 1; read-out: MIC against acne bacterium strain HL110PA3 strain (RT6).
Assay [4] has as its system HL110PA3 strain (RT6). Kind of assay: MIC by broth microdilution method, HL110PA3 strain. The note with it: for MIC: Cutibacterium acnes, read-out: MIC against acne bacterium strain HL110PA3 strain (RT6). The procedure: as §1, §2, §3, §4, §5, §6, §7
The subject of assay [5] is HL053PA1 strain (RT4) and HL043PA1 strain (RT5) versus HL110PA3 strain (RT6). As to the kind of experiment: Strain-selective antibacterial activity (average of MICRT6/MICRT4 and MICRT6/MICRT5). From the text: Herein, “acne strain-selective antibacterial activity” or “strain-selective antibacterial activity” means an index indicating better inhibition of growth of a dominant strain in acne patients compared to that of a dominant strain in healthy subjects. It is expressed by the average value of the values (MICRT6/MICRT4, and MICRT6/MICRTS) obtained by dividing the minimum inhibitory concentration (MIC) of an object substance with respect to the dominant strain in healthy subjects (RT6 strain) (MICRT6) respectively by the MIC of the object substance with respect to the dominant strain in acne patients (RT4 strain) (MICRT4), and by the MIC of the object substance with respect to the dominant strain in acne patients (RT5 strain) (MICRT5).
The strain-selective antibacterial activity of each test substance (Table 2, right-most column) was evaluated based on the following rating criteria (Table 3). When the strain-selective antibacterial activity is indicated by a numerical range, the rating was based on the minimum value thereof.

Setting [6] is: monoacylglycerols, Example 3, method as Example 1.
Where [7] appears, read: 48 h, pH 6.0 modified GAM broth, anaerobic, 37° C., 2 days (Example 1).
Setting [8] is: 72 h, pH 5.0, estimated from the growth on day 3.
The mark [9] stands for this setting: control antibacterial agents, Comparative Example 1.
Where [10] appears, read: control antibacterial agents, Comparative Example 1, method as Example 1.

In brackets after ≈: the same amount, converted by molar mass. Read-outs that look alike come from different tables or passages of the source.

In the case of `CCCCCCCCCCCCCCCCCC(=O)OCC(O)CO` (stereo not drawn) [Monostearin], the MIC in assay [1] (setting [6]), in assay [2] (setting [6]) and in assay [3] was over 1000 µg/mL each time.

Regarding `CCCCCCCCC(=O)O` [Nonanoic acid (C9:0), Nonanoic acid, reference compound], the MIC was 500 µg/mL (≈ 3160 µM) in assay [1] (setting [7]), 250 µg/mL (≈ 1580 µM) in assay [2] (setting [7]) and 250 µg/mL (≈ 1580 µM) in assay [4] (setting [7]). The compound further registered a Strain-selective antibacterial activity in assay [5] (pH 6.0 (Example 1)) of 0.75.

As for `CCCCCCCC/C=C\CCCCCCCC(=O)O` [Oleic acid (C18:1), Oleic acid], the MIC is 500 µg/mL (≈ 1770 µM) in assay [1] (setting [7]), 62.5 µg/mL (≈ 221 µM) in assay [2] (setting [7]) and over 1000 µg/mL in assay [4] (setting [7]). In addition, in assay [5] (pH 6.0 (Example 1)), the Strain-selective antibacterial activity was over 9.0. Moreover, the “Strain-selective antibacterial activity at each pH” value in assay [5] (pH 6 (summary Table 10)) is on record as over 9.

As for `CCCCCC/C=C\CCCCCCCC(=O)O` [Palmitoleic acid (C16:1), Palmitoleic acid, reference compound], the MIC stood at 31.3 µg/mL (≈ 123 µM) in assay [1] (setting [7]), 7.81 µg/mL (≈ 30.7 µM) in assay [2] (setting [7]) and 15.6 µg/mL (≈ 61.3 µM) in assay [4] (setting [7]). Also, the Strain-selective antibacterial activity in assay [5] (pH 6.0 (Example 1)) is on record as 1.2.

As for `CCCCCCCCCCCCCCCCCC(=O)O` [Stearic acid (C18:0), Stearic acid], the MIC in assay [1] (setting [7]) is over 1000 µg/mL; in assay [1] (setting [8]) it was over 1000 µg/mL; in assay [1] (pH 5.5) it was over 1000 µg/mL; in assay [1] (pH 6.5), over 1000 µg/mL; in assay [1] (pH 7.0), 62.5 µg/mL (≈ 220 µM); in assay [2] (setting [7]), over 1000 µg/mL. Also, the minimum inhibitory concentration (MIC) in assay [2] (setting [8]) was over 1000 µg/mL; in assay [2] (pH 6.5) it was over 1000 µg/mL; in assay [2] (pH 7.0) it was 31.3 µg/mL (≈ 110 µM); in assay [4] (setting [7]), over 1000 µg/mL; in assay [4] (72 h, pH 5.5, estimated from the growth on day 3) it was over 1000 µg/mL; in assay [4] (96 h, pH 5.0, estimated from the growth on day 4), over 1000 µg/mL. Further, the MIC in assay [4] (pH 6.5) was over 1000 µg/mL; in assay [4] (pH 7.0), 1000 µg/mL (≈ 3520 µM). The same compound registered a Strain-selective antibacterial activity in assay [5] (pH 7.0) of 24. Moreover, the “Strain-selective antibacterial activity at each pH” value in assay [5] (pH 7 (summary Table 10)) worked out at 24.

With `Oc1cc(Cl)ccc1Oc1ccc(Cl)cc1Cl` [Triclosan, reference compound], the MIC in assay [1] stood at 0.975 µg/mL (≈ 3.37 µM); in assay [2], 1.95 µg/mL (≈ 6.73 µM); in assay [4] it was 3.9 µg/mL (≈ 13.5 µM). For the same compound, in assay [5] (setting [9]), the Strain-selective antibacterial activity came out at 3.0.

With `CCCCCCCCCCCCC(=O)O` [Tridecanoic acid (C13:0), Tridecanoic acid, reference compound], the MIC in assay [1] (setting [7]) was determined as 15.6 µg/mL (≈ 72.8 µM); in assay [2] (setting [7]), 31.3 µg/mL (≈ 146 µM); in assay [4] (setting [7]), 15.6 µg/mL (≈ 72.8 µM). Moreover, in assay [5] (pH 6.0 (Example 1)), the Strain-selective antibacterial activity was 0.75.

Turning to `CCCCCCCCCCC(=O)O` [Undecanoic acid (C11:0), Undecanoic acid, reference compound], the MIC in assay [1] (setting [7]), in assay [2] (setting [7]) and in assay [4] (setting [7]) was 15.6 µg/mL (≈ 83.7 µM) throughout. The compound further returned a Strain-selective antibacterial activity in assay [5] (pH 6.0 (Example 1)) of 1.0.

On to `Cc1cc(O)ccc1C(C)C` [reference compound], for which the “MIC against acne bacterium strain HL053PA1 strain (RT4)” value in assay [1] (setting [10]) amounted to 125 µg/mL (≈ 832 µM). In addition, the “MIC against acne bacterium strain HL043PA1 strain (RT5)” value in assay [2] (setting [10]) came out at 125 µg/mL (≈ 832 µM). Also, in assay [4] (setting [10]), the “MIC against acne bacterium strain HL110PA3 strain (RT6)” value turned out to be 62.5 µg/mL (≈ 416 µM). The Strain-selective antibacterial activity in assay [5] (setting [9]) worked out at 0.50.

One may read the MIC as the lowest concentration found to suppress growth.
